Assay results taken from patent publication US7973053B2, “Nerve cell death inhibitor” (priority 2007, dated 2011).
Counter-ions that a name gives are not always drawn.

Assays:
[1] = tested on: nerve cells in the hippocampus CA1 region; assay: rat model for revascularization of vertebral-carotid artery occlusion (4-point ischemia), nerve cell death in hippocampus CA1; assay type: in vivo; details: oral once a day for 6 days
Protocol: Seven-week old Crlj:WI male rats (Charles River Laboratories Japan Inc.) were obtained, and they were provided to the experiment after being subjected to quarantine (for 5 days) and acclimatization (for 7 days or more). Throughout the experimentation period, the rats were bred in a breeding chamber maintained under a light-dark cycle (light period under room light: 6:00 AM to 6:00 PM), at a temperature of 23±3° C. and a humidity of 55±15%, and were allowed to freely take in solid feedstuff (CRF-1; Oriental Yeast Co., Ltd.) and drinking water (tap water).
Pitavastatin and ARICEPT were each suspended in a 0.5% (w/v) aqueous solution of carboxymethylcellulose sodium (hereinafter, CMC-Na, SIGMA), and prepared just before use such that the amount of administration would be 5 mL/kg.
The day of grouping was counted as the first day of administration, and the test drug was orally administered once a day for 6 days, thus 6 times in total. The normal group and the solvent control group were administered with a 0.5% (w/v) aqueous solution of CMC-Na.
On the fifth day of administration, 35 mg/kg of pentobarbital sodium (Nembutal (registered trademark) injectable solution, Dainippon Pharmaceutical Co., Ltd.) was intraperitoneally administered to the rats excluding those in the normal group. The right and left alar foramens were exposed from the first cervical spine part under anesthesia, and the vertebral arteries were thermally solidified using a soldering iron, so as to permanently occlude the vertebral arteries on both sides. […]
The fixated brains were dehydrated, infiltrated and embedded in paraffin, and a section having a thickness 10 μm was produced from the vicinity of Bregma −3.3 mm. […] The number of nerve cells was counted using an image analyzer (Win ROOF V5.6, Mitani Corporation), and the length of CA1 was measured.
According to the following formula, the number of nerve cells per unit length was determined, and the average value and standard deviation were calculated for each group. […]

[2] = tested on: nerve cells; details: pitavastatin 3 mg/kg single administration; Non-Patent Document 9; cited from earlier work

COc1cc2c(cc1OC)C(=O)C(CC1CCN(Cc3ccccc3)CC1)C2 (stereo not shown) [ARICEPT, donepezil hydrochloride]
number of nerve cells in the hippocampus CA1 region (cells/mm) vs solvent control group ([1]; Comparative Example 1, ARICEPT 0.5 mg/kg single administration, FIG. 2): not significant
number of nerve cells in the hippocampus CA1 region (cells/mm) vs solvent control group ([1]; Example 1, ARICEPT 0.5 mg/kg single administration, FIG. 1): not significant

O=C([O-])C[C@H](O)C[C@H](O)/C=C/c1c(C2CC2)nc2ccccc2c1-c1ccc(F)cc1.O=C([O-])C[C@H](O)C[C@H](O)/C=C/c1c(C2CC2)nc2ccccc2c1-c1ccc(F)cc1.[Ca+2] [pitavastatin, pitavastatin calcium]
increase in the number of nerve cells, as reported in the literature [2]: presence of significant difference
number of nerve cells in the hippocampus CA1 region (cells/mm) vs solvent control group ([1]; Example 1, pitavastatin 3 mg/kg single administration, FIG. 1): not significant
